1 molecule from patent US8548786B2, “Neuronal avalanche assay” (priority 2005, dated 2013) can be followed below.

In assay [1] the test system is acute somatosensory cortex slices. Kind of assay: Neuronal avalanche induction in acute somatosensory cortex slices. Type of assay: cell-based, rat. As to conditions: 3 μM SKF38393 + 3 μM NMDA.
For assay [2], the system named is acute slices of rat medial prefrontal cortex (mPFC). Kind of assay: Neuronal avalanche (NAS) assay, microelectrode array LFP recording in acute mPFC slices.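 Also: 60-electrode array recordings, low-pass filtered at 200 Hz and sampled at 1 kHz, nLFPs detected below −3 SD of electrode noise, avalanches as runs of active bins between silent bins.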
Experimental: Continuous extracellular signals v(t) can be recorded between 0.1 Hz and 3000 Hz, low-pass filtered at 200 Hz (Butterfly-filter, Multichannel Systems), digitised at a rate of 1 kHz (Δt=1 ms) and stored. For each electrode k (k=[1, nelec], nelec=60), the electrode noise of v(t) can be estimated by calculating the mean and standard deviation (SD) of v(t) from the total duration of the recording, Ttot, which can range, for example, between 40-60 min. […] Negative LFP peaks (nLFPs) at electrode k can be detected by negative threshold crossing at −3 SD of electrode noise and can be characterized by the time and absolute amplitude of the negative LFP peak, A^k(ti), before v(t) returned to threshold. More precisely, at a given temporal resolution Δt, nLFPs at electrode k can be represented by a vector of length nmax, where nmax is an integer value for which Ttot=nmax·Δt. This vector can contain zeros, except for positions ti=i·Δt, iε[1, . . . , nmax,] with values A^k(ti) in μV.
A neuronal avalanche is a sequence of consecutive time bins of width Δt with at least one nLFP, which is preceded and terminated by at least one time bin with no activity (FIG. 3A). The absence of activity for a period of Δt thus indicates the end of an avalanche. If the decision of whether an avalanche has ended is made too early (Δt too short), avalanches will be terminated prematurely; if the Δt chosen is too long, avalanches will be falsely concatenated. If avalanches did simply propagate like a wave, an approximation for Δt (Δtavg) could be obtained by averaging the time between one nLFP at one electrode and the next nLFP at neighbouring electrodes only. Because nLFPs in avalanches occur in irregular patterns across electrodes on the array, a pair wise approximation can be used in order to assess the average time that is required for nLFPs to propagate between electrodes.
In order to calculate Δtavg, the distribution of time intervals T for successive nLFPs on the array can be obtained. Starting with the first nLFP, e.g. A^k(ti) on electrode k at time ti, the next occurrence of an nLFP on the array can be searched for, e.g. A^l(tj) on electrode l at time tj, and calculated the time interval Tm-Δt^k,l, where m=(tj−ti)/Δt. This process can be repeated for all occurrences of nLFPs on electrode k and for all electrodes. The resulting values can be combined into one density distribution P(TmΔt), which captures how often successive nLFPs occurred with a particular delay m·Δt on the array irrespective of their spatial location. Consequently, the average value of T provides an approximation for Δtavg, the average time to wait before making a decision whether an nLFP propagated on the array. However, this interval distribution is highly skewed, particularly when one compares the last nLFP with the first nLFP in successive avalanches that are separated by long times. In order to exclude time intervals from successive nLFPs that are barely correlated, a cut-off time τmax can be calculated for which the average crosscorrelation function (ccf) for pair wise electrode comparisons Rccf(τ) had decayed to negligible values. The ccf between electrodes k, l (Rccf^k,l(τ)) can be calculated as
Because the exemplary maximal sampling rate was 1 kHz, the actual Δt^avg to calculate avalanches can be taken as the nearest multiple of Δt=1 ms. In short, after Δtavg was calculated for a particular network and experimental condition, the extracellular signals v(t) can be re-sampled at the new temporal resolution of Δtavg. Time and amplitude of nLFP peaks can be extracted as A^k(ti), where ti=i·Δtavg, iε[1, n′max] and Ttot=n′max·Δtavg. Avalanches can be determined on the downsampled data set at bin width Δtavg.
Avalanche sizes can be calculated in two different ways (see also FIG. 3A).

As for `Cl.Oc1cc2c(cc1O)C(c1ccccc1)CNCC2` (racemic) [SKF38393], the “avalanche induction and layer localisation” value in assay [1] is “induced neuronal avalanches primarily in superficial layers”. Moreover, in assay [2] (3 μM SKF38393 + 3 μM NMDA), the “average nLFP peak amplitude” value is given as 6.62±0.01 mV and the Δtavg is 3.3±0.2. Also, the “total activity at slope α ~−1.5 compared to dopamine” value in assay [2] (3 μM SKF38393 + 3 μM NMDA vs 30 μM dopamine, p=0.007) was “significantly reduced level of total activity compared to dopamine”. Further, the “slope αLFP after rescue by added NMDA” value in assay [2] (3 μM SKF38393 alone first, then 3 μM NMDA added) is reported as −1.55±0.07. In assay [2] (3 μM SKF38393 alone, without NMDA), the “induction of nLFPs or avalanches” value was “did not induce nLFPs or avalanches”. For the same molecule, in assay [2] (SKF38393 higher or lower than 3 μM (0.3-300 μM range), + 3 μM NMDA), the “slope α of avalanche size distribution” value is on record as less than −1.5.
